Data reported in patent US20090081285A1, “USE OF RADICAL-CAPTURING SUBSTANCES IN A TOPICAL PREPARATION FOR ANTIPYRETIC TREATMENT” (priority 2005, published 2009).
Like-named read-outs stand apart in the source and are kept apart here.

Columns and labels:
[1] = standard antioxidants, RPF stated as well-known; cited from earlier work
[2] = Radical protection factor (RPF) by electron spin resonance (ESR); assay type: physicochemical; conditions: in vitro
Source text: wherein RF=(S1−S2)/S1; RC=concentration of test substance (radicals/ml); PI=concentration of active substance preparation (mg/ml); S2=signal amplitude of a solution of antioxidant. The radical protection factor is preferably 800×10^14 radicals per mg of preparation, more preferably 30,000×10^14 radicals per mg of preparation.
The radical protection factor (RPF) indicates the activity in binding free radicals by an antioxidant or radical scavenger compared to a test substance.
As set forth above, the radical protection factor (RPF) determines the activity of a substance for binding free radicals as compared with a test substance. The test substance consists of a highly reactive, semi-stable radical which reacts with all known antioxidants. Such radicals include nitroxides such as Proxo (2,2,5,5-tetramethyl-1-dihydropyrrolinoxy nitroxide), Tempol (2,2,6,6-tetramethyl-1-piperidinoxy-4-ol nitroxide), DTBN (di-tert-butyl-nitroxide) or preferably DPPH (1,1-diphenyl-2-picryl-hydrazyl).
The RPF is measured in such a way that the signal amplitude of the test radical is measured by electron spin resonance (ESR/EPR) before and after mixing with an antioxidant/radical scavenger and calculating the RPF therefrom. For a series of standard antioxidants the RPF is well-known.
Ind. […] Starting from the known concentration of test substance (here: DPPH) or the number of its free radicals (radicals per ml), a signal amplitude S1 is measured using an ESR spectrometer. Both test radical and antioxidant are dissolved in a water/alcohol solution (e.g. 0.1 M). Thereafter, the signal amplitude S2 of the antioxidant is measured. The normalized difference between the two signal amplitudes is the reduction factor RF.
The result of the radical reduction of the test substance RC×RF is normalized relative to the quantity of product input PI (mg/ml). RC is the amount of the test substance, i.e., the known number of radicals in the test substance. The radical protection factor is calculated by means of the following equation:
RPF=N×10^14[radicals per mg],
wherein N is a positive real number and RPF for simplification may be reduced to the numerical value of N. This reduction will be used in the examples of the present invention.
The radical protection factor can be determined using an ESR spectrometer (GALENUS GmbH, Berlin, Germany) and is a magnitude for characterizing products with respect to their capability of binding free radicals. The method is an in vitro method in which no individual properties of the user would influence the antioxidants.

[3] = radical scavenger raw materials

Row | Molecule | radical protection factor (RPF) [1] | radical protection factor (RPF) [2, 3] | also measured
1 | CC1=C(/C=C/C(C)=C/C=C/C(C)=C/CO)C(C)(C)CCC1 [all-trans-retinol] | 827 ×10^14 radicals/mg |  | 
2 | CC(=O)Oc1c(C)c(C)c2c(c1C)CCC(C)(CCC[C@H](C)CCC[C@H](C)CCCC(C)C)O2 (stereo partly drawn) [α-tocopheryl acetate] | about 48 ×10^14 radicals/mg |  | 
3 | O=C1O[C@H]([C@@H](O)CO)C([O-])=C1OP(=O)([O-])[O-].[Na+].[Na+].[Na+] [sodium ascorbyl phosphate] |  | 35,000 ×10^14 radicals/mg | 
4 | cyclodextrins |  |  | radical protection factor (RPF) ([2]; printed without unit (b55-56: RPF=N×10^14 radicals per mg, reduced to N)): 0
5 | Cc1c(C)c2c(c(C)c1O)CCC(C)(CCCC(C)CCCC(C)CCCC(C)C)O2 (racemic) [DL-α-tocopherol] | 41,200 ×10^14 radicals/mg |  | 
6 | O=C(/C=C/c1ccc(O)c(O)c1)O[C@H](Cc1ccc(O)c(O)c1)C(=O)O [rosmarinic acid] |  | 36,000-68,000 ×10^14 radicals/mg | 
7 | CC(=O)OC/C=C(C)/C=C/C=C(C)/C=C/C1=C(C)CCCC1(C)C [all-trans-retinol acetate] | 196 ×10^14 radicals/mg |  | 
8 | O=C(OC[C@H]1O[C@@H](OC(=O)c2cc(O)c(O)c(OC(=O)c3cc(O)c(O)c(O)c3)c2)[C@H](OC(=O)c2cc(O)c(O)c(OC(=O)c3cc(O)c(O)c(O)c3)c2)[C@@H](OC(=O)c2cc(O)c(O)c(OC(=O)c3cc(O)c(O)c(O)c3)c2)[C@@H]1OC(=O)c1cc(O)c(O)c(OC(=O)c2cc(O)c(O)c(O)c2)c1)c1cc(O)c(O)c(OC(=O)c2cc(O)c(O)c(O)c2)c1 [tannic acid] |  | 310,000 ×10^14 radicals/mg | 
